How the values were obtained:
Aβ1-42 [1] = target: T1, Aβ1-42 (Homo sapiens, UniProt P05067); assay: Thioflavine T fluorescence spectroscopy assay (time course to 96 h); type: biochemical; details: 20 μM compound, Aβ1-42 incubated for 96 h
T1 construct: Aβ1-42 was purchased from Gill Biochemicals Ltd (Shanghai, China); purchased Gill Biochemicals Ltd (Shanghai, China)
Protocol: (§1) The Aβ1-42 solutions (100 μM) were co-incubated with B14 (20 μM) or Curcumin (20 μM) at 37 °C protected from light for 96 h. 30 μL of Aβ1-42 solution was taken at different time points (0 h, 10 h, 24 h, 48 h, 72 h, 96 h), mixed fully with 400 μL of ThT solution (15 μM), and incubated in the dark for 30 min. The fluorescence signal was recorded by using a Cary Eclipse fluorescence spectrophotometer (Varian, USA) with the following setting: excitation wavelength at 440 nm, emission wavelength at 480 nm, and slit width of 20 nm.
as §1, with “μM) and” for “μM) or”, “Aβ1-42 solutions were” for “Aβ1-42 solution was”, “by” for “by using”, “with” for “with the following setting:”

Aβ1-42 [2] = target: T1, Aβ1-42; assay: Dot blot of Aβ1-42 fibril aggregation; type: biochemical; details: 20 μM compound, 24 h
Protocol: After incubation at 37 °C for 24 h, 10 μL aliquots of 20 μM Aβ1-42 reaction mixtures were spotted onto nitrocellulose membranes. Membranes were blocked for 2 h with 5 % non-fat milk in TBS. After washing, membranes were incubated with the anti-Aβ fibril antibody (1:1,000, CST, USA) dissolved in TBS containing 3 % bovine serum albumin (BSA, Beyotime, Jiangsu, China) and 0.01 % Tween-20 (Solarbio, Beijing, China), and developed using an alkaline-phosphatase anti-rabbit secondary antibody (1:5,000, Proteintech, China). The bands were then detected using an enhanced chemiluminescence (ECL) kit (Millipore, USA).
After incubation at 37 °C for 24h, 10 μL aliquots of 20 μM Aβ1-42 reactions were spotted onto nitrocellulose membranes. The membranes were blocked for 2 h with 5% non-fat milk in TBS. After washing, the membranes were incubated with the anti-Aβ fibril antibody (1:1000 dilution) dissolved in TBS containing 3% BSA and 0.01% Tween-20, and then developed using an alkaline-phosphatase antirabbit secondary antibody (1:5000 dilution). Invitrogen's Western Breeze Chemiluminescent kit was used to visualize the protein dots, and these dots were imaged using a FUJIFILM Luminescent Image Analyzer LAS-1000CH.

[3] = tested on: MDA, SOD, GSH-Px, CAT in hippocampus of APP/PS1 mice; assay: Biochemical parameters analysis (oxidative stress) in hippocampus; type: in vivo
Source text: Five months old male APP/PS1 mice, weighing 25–33 g, were purchased from Guangdong Medical Laboratory Animal Center and housed in the Laboratory Animal Center of Sun Yat-sen University (Guangzhou, China) for experimentation. All procedures were approved by the Animal Care and Use Committee of Sun Yat-sen University and complied with legal requirements and national guidelines for the care and maintenance of laboratory animals (Approval No. SYSU-IACUC-2024-002032). The mice were housed in a specific pathogen-free environment with a controlled temperature of 22 ± 1 °C and a 12-h dark/light cycle. The mice were fed with a standard diet, and 30 mice were randomly divided into 6 groups (N = 5). Compound B14 was dissolved in saline and administered at doses of 10, 20, or 40 mg/kg. APP/PS1 male mice were grown until 6 months of age, and then injected intraperitoneally with compound B14 every other day for 60 days. […]
The hippocampi were homogenized in normal saline containing protease inhibitors. The homogenate was centrifuged at 2500 rpm for 10 min, and the protein concentration in the supernatant was measured by using the bicinchoninic acid (BCA, Beyotime, Jiangsu, China) method. The levels of malondialdehyde (MDA) and the activities of superoxide dismutase (SOD), glutathione peroxidase (GSH-Px) and […] (CAT) were determined by using relevant assay kits (Beyotime, Jiangsu, China).

(G2C4)6 promoter i-motif = assay: SPR binding to (G2C4)6 promoter i-motif; details: MES buffer pH 5.5
[4] = tested on: BCL-2(G4) (DNA, G4) AGGGGCGGGCGCGGGAGGAAGGGGGCGGGAGCGGGGCTG; assay: CD melting, 260 nm; details: K+ 100 mM; Figure S6 legend says Na+ 20 mM; Tris-HCl, pH 7.4; 20 μM B14, 2 μM DNA
BCL-2 IM = assay: FRET fluorescence titration of double-labeled DNA; type: binding; details: pH 6.2
Protocol: Figure S3. Biophysical experiments were performed for binding of acridine derivative to BCL-2 promoter i-motif and other DNA structures. (A-C) SPR experiments were performed for binding of B14 to ILPR promoter i-motif, (G2C4)6 promoter i-motif, and HRAS promoter i-motif. Bio-ILPR, bio-(G2C4)6, and bio-HRAS were annealed in MES buffer at pH 5.5. (D) FRET experiment was performed for pH-dependent fluorescence change of BCL-2 promoter i-motif dual labeled with FAM and TAMRA at the 5´-end and 3´-end, respectively. […] (E) Dose-dependent fluorescence spectra changes at 516 nm for various dual labeled C-rich oligomers (representing i-motifs from promoters of BCL-2, C-KIT, C-MYC, C-JUN and TEL-C DNA) were measured with addition of increasing amount of B14. […] All the experiments were repeated for three times.
The oligonucleotides with fluorescent 5´-FAM and 3′-TAMRA labeling at concentration of 100 nM in 1 × BPES buffer were annealed by heating at 95 °C for 5 min followed by cooling to room temperature. The spectra from 500 nm to 700 nm of 100 μL mixture with addition of different equivalent compounds at 25 °C were recorded based on fluorescence emission (λex = 480 nm).

BCL-2 i-motif = assay: ESI-MS with BCL-2 i-motif; type: binding; details: pH 6.5
Protocol: The oligomer for BCL-2 promoter […] at concentration of 5 μM was annealed in 1 × BPES buffer with or without 20 μM B14 at 95 °C for 5 min, followed by cooling to room temperature. Mass spectrometry signals were collected by using ESI-MS (Thermo, LCQ DECA Plus XP) and analyzed by using pro-mass.

T1 sequence (P05067 672-713 limits assumed): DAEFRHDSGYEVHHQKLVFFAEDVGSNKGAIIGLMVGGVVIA

O=C(CCN1CCOCC1)Nc1ccc2c(c1)c(=O)c1cc(NC(=O)CCN3CCOCC3)ccc1n2-c1ccc2occc2c1 [Compound B14]
decrease of ThT fluorescence intensity (Aβ1-42 [1]): 39.58 ± 2.08% | formation of Aβ fibers (dot blot) (Aβ1-42 [2]): reduced the formation of Aβ fibers and greatly decreased Aβ self-aggregation | MDA level [3]: reduce the levels of lipid peroxides MDA | levels of antioxidant enzymes [3]: restore the levels of antioxidant enzymes (SOD, GSH-Px, and CAT) | Kd ((G2C4)6 promoter i-motif): 33.3 µM | ΔTm [4]: -3.13 °C | fluorescence response of double-labeled DNA (BCL-2 IM): dose-dependent effect on the fluorescence of BCL-2 IM | adduct peak in ESI-MS (BCL-2 i-motif): could bind tightly to BCL-2 i-motif

Reference: article PMC11982498 (Redox Biology, 2025)
